Assay results from article PMC6872167, “An odorant receptor from Anopheles gambiae that demonstrates enantioselectivity to the plant volatile, linalool” (PLoS ONE, 2019).

Key:
[1] = target: T1, Odorant receptor 29 (AgamOr29) (Anopheles gambiae, UniProt A0A1S4H074); test: two-electrode voltage clamp of Xenopus oocytes, concentration-response; type: cell-based
T1 construct: coding region, expressed with AgamOrco in Xenopus laevis oocytes; with AgamOrco
T1 sequence (A0A1S4H074 1-384): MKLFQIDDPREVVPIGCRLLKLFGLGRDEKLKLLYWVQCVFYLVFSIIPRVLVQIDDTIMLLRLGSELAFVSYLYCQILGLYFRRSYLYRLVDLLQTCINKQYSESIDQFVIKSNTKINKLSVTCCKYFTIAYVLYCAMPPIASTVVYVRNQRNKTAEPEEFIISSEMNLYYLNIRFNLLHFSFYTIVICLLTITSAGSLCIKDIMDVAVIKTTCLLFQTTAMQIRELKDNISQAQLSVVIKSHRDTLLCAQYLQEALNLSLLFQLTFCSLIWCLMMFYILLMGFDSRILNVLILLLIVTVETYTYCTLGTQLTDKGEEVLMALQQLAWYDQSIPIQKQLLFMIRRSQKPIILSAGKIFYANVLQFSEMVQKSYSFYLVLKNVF
T1 sequence (Q7QCC7 1-478 partner): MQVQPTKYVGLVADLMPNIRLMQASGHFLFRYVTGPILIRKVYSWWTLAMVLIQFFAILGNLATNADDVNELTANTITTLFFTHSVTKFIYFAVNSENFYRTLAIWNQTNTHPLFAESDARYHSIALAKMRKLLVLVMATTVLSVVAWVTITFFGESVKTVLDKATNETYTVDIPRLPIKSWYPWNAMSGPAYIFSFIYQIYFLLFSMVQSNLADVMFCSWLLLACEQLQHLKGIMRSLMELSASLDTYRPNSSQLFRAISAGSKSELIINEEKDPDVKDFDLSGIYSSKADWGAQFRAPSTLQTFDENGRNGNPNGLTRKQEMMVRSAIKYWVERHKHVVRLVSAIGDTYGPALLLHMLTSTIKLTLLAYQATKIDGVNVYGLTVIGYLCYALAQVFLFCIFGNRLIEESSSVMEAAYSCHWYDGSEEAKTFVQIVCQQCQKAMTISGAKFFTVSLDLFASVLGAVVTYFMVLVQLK
From the text: two-electrode voltage clamp of Xenopus oocytes, concentration-response on Odorant receptor 29 (AgamOr29) | to (R)-(–)-linalool (left)and (+/–) linalool (right).

[2] = target: T1, Odorant receptor 29 (AgamOr29); test: two-electrode voltage clamp of Xenopus oocytes, single concentration […]; type: cell-based

EC50 [1] | SMILES | two-electrode voltage clamp of Xenopus oocytes, single concentration 10^-4 M [2]
~8 µM | C=C[C@](C)(O)CCC=C(C)C [(R)-(–)-linalool] | –
~5.7 µM | C=CC(C)(O)CCC=C(C)C (racemic) [(+/–) linalool] | –
– | CCC(C)(O)CCCC(C)C (stereo not drawn) [tetrahydro linalool] | tetrahydro linalool elicited a moderate, but repeatable response from AgamOr29, likely due to its structural similarity to linalool
